Legend:
Assay in all cases: relative viability (nuclei count vs DMSO), 5 days (fraction); higher = more cells survive
Motesanib + Luminespib = compound: CC1(C)CNc2cc(NC(=O)c3cccnc3NCc3ccncc3)ccc21 [Motesanib] + CCNC(=O)c1noc(-c2cc(C(C)C)c(O)cc2O)c1-c1ccc(CN2CCOCC2)cc1 [Luminespib] (partner 0.01 µM)
In short: (§1)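 Relative viability was taken as the ratio of nuclei in treated wells to nuclei in vehicle wells. Lung cancer cell lines in 1536-well plates received compounds by pin tool one day after seeding, either one drug alone or a fixed anchor-drug dose plus five library-drug doses (not always all listed) in √10 steps. Nuclei were counted on 4× images after 5 days of treatment, and values are medians of duplicate plates.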

[1] = compound: C[C@@]1(C(=O)Nc2ccc(F)nc2)CCCN1c1nc(Nc2cc(C3CC3)n[nH]2)c2cccn2n1 + NC(=O)Nc1cc(-c2cccc(F)c2)sc1C(=O)N[C@H]1CCCNC1 [AZD7762] (partner 0.2 µM)
In short: as §1

Motesanib + Olaparib = compound: CC1(C)CNc2cc(NC(=O)c3cccnc3NCc3ccncc3)ccc21 [Motesanib] + O=C(c1cc(Cc2n[nH]c(=O)c3ccccc23)ccc1F)N1CCN(C(=O)C2CC2)CC1 [Olaparib] (partner 8 µM)
In short: as §1

[2] = compound: C[C@@]1(C(=O)Nc2ccc(F)nc2)CCCN1c1nc(Nc2cc(C3CC3)n[nH]2)c2cccn2n1 + CS(=O)(=O)N1CCN(Cc2cc3nc(-c4cccc5[nH]ncc45)nc(N4CCOCC4)c3s2)CC1 [Pictilisib] (partner 1 µM)
In short: as §1

Row | Cell Line | relative viability (Motesanib + Luminespib; first compound 0.01 µM) | relative viability (Motesanib + Luminespib; first compound 0.03162 µM) | relative viability (Motesanib + Luminespib; first compound 0.1 µM) | relative viability (Motesanib + Luminespib; first compound 0.3162 µM) | relative viability (Motesanib + Luminespib; first compound 1 µM) | relative viability ([1]; first compound 0.04 µM) | relative viability ([1]; first compound 0.1265 µM) | relative viability ([1]; first compound 0.4 µM) | relative viability ([1]; first compound 1.265 µM) | relative viability (Motesanib + Olaparib; first compound 0.01 µM) | relative viability (Motesanib + Olaparib; first compound 0.03162 µM) | relative viability (Motesanib + Olaparib; first compound 0.1 µM) | relative viability (Motesanib + Olaparib; first compound 0.3162 µM) | relative viability (Motesanib + Olaparib; first compound 1 µM) | relative viability ([2]; first compound 0.04 µM) | relative viability ([2]; first compound 0.4 µM) | relative viability ([2]; first compound 1.265 µM) | relative viability ([2]; first compound 0.1265 µM)
1 | NCI-H1993 | 0.923 | 0.734 | 0.826 | 0.863 | 0.932 | 0.495 | 0.496 | 0.455 | 0.567 | 1.03 | 0.94 | 1.03 | 1.06 | 1.08 | 0.906 | 0.803 | 0.812 | 
2 | NCI-H647 | 0.122 | 0.144 | 0.387 | 0.165 | 0.216 | 0.402 | 0.591 | 0.452 | 0.32 | 0.48 | 0.638 | 0.496 | 0.629 | 0.611 | 0.443 | 0.334 | 0.348 | 0.24
3 | NCI-H1792 | 0.447 | 0.428 | 0.406 | 0.501 | 0.466 | 0.446 | 0.277 | 0.332 | 0.323 | 0.544 | 0.444 | 0.491 | 0.444 | 0.486 | 0.257 | 0.201 | 0.318 | 0.266
4 | ChaGo-K-1 | 0.525 | 0.656 | 0.589 | 0.552 | 0.588 | 0.845 | 0.815 | 0.862 | 0.841 | 0.434 | 0.437 | 0.425 | 0.484 | 0.411 | 0.643 | 0.849 | 0.371 | 0.662
5 | LOU-NH91 | 0.38 | 0.364 | 0.332 | 0.379 | 0.393 | 0.683 | 0.723 | 0.626 | 0.642 | 0.925 | 0.98 | 0.88 | 0.943 | 0.959 | 0.492 | 0.452 | 0.448 | 0.478
6 | NCI-H2405 |  | 0.536 | 0.741 | 0.689 | 0.813 | 0.619 | 0.483 | 0.472 | 0.313 | 0.741 | 0.808 | 0.859 | 0.837 | 0.832 | 0.391 | 0.37 | 0.296 | 0.357
7 | LCLC-97TM1 | 0.635 | 0.809 | 0.707 | 0.813 | 0.793 | 0.284 | 0.234 | 0.134 | 0.128 | 0.373 | 0.414 | 0.501 | 0.476 | 0.287 | 0.139 | 0.159 | 0.136 | 0.151
8 | NCI-H596 | 1.17 | 0.917 | 1.07 | 0.988 | 0.871 | 1.1 | 1.07 | 0.94 | 1.19 | 0.792 | 0.623 | 0.648 | 0.677 | 0.646 | 0.378 | 0.335 | 0.316 | 0.349
9 | NCI-H727 | 0.292 | 0.261 | 0.729 | 0.332 | 0.352 | 0.573 | 0.386 | 0.443 | 0.345 | 0.937 | 0.614 | 0.761 | 0.779 | 0.6 | 0.328 | 0.306 | 0.155 | 0.179
10 | H3255 | 0.872 | 0.954 | 0.942 | 1.06 | 0.902 | 0.96 | 0.931 | 0.811 | 0.855 | 0.564 | 0.601 | 0.576 | 0.585 | 0.643 | 0.49 | 0.415 | 0.371 | 0.423
11 | NCI-H1437 | 1.13 | 1.07 | 1.08 | 1.1 | 1.15 | 1 | 1.25 | 0.688 | 0.745 | 0.637 | 0.631 | 0.63 | 0.682 | 0.657 | 0.271 | 0.248 | 0.363 | 0.295
12 | LU99A | 0.228 | 0.187 | 0.336 | 0.243 | 0.25 | 0.294 | 0.243 | 0.223 | 0.143 | 0.284 | 0.268 | 0.271 | 0.255 | 0.263 | 0.233 | 0.225 | 0.163 | 0.217
13 | HCC-827 | 0.777 | 0.809 | 0.775 | 0.75 | 0.576 | 0.273 | 0.19 | 0.241 | 0.191 | 0.616 | 0.746 | 0.652 | 0.713 | 0.548 | 0.889 | 1.1 | 1 | 1.07
14 | LK-2 | 0.213 | 0.191 |  | 0.189 | 0.192 | 0.179 | 0.203 |  | 0.179 | 0.644 | 0.94 | 0.608 | 0.817 | 0.756 | 0.574 | 0.569 | 0.523 | 0.565
15 | BEN | 0.331 | 0.46 | 0.393 | 0.498 | 0.387 | 0.809 | 0.645 | 0.67 | 0.676 | 1.02 | 1.04 | 0.938 | 1.18 | 1.43 | 0.614 | 0.606 | 0.614 | 0.573
16 | NCI-H23 |  | 0.193 | 0.209 | 0.205 | 0.222 | 0.238 | 0.208 | 0.193 | 0.114 | 0.354 | 0.299 | 0.308 | 0.281 | 0.348 | 0.583 | 0.396 | 0.342 | 0.371
17 | NCI-H1395 | 0.662 | 0.665 | 0.65 | 0.876 | 0.866 | 0.395 | 0.416 | 0.396 | 0.364 | 0.442 | 0.496 | 0.455 | 0.493 | 0.468 | 0.664 | 0.761 | 0.788 | 0.436
18 | 201T | 1.02 | 1.02 | 1.11 | 1.01 | 1.05 | 0.623 | 0.575 | 0.473 | 0.597 | 0.803 | 0.828 | 0.852 | 0.88 | 0.872 | 0.638 | 0.554 | 0.614 | 0.622
